In US12264173B2 (GILEAD SCIENCES, INC., priority 2020, dated 2025):
Like-named read-outs stand apart in the source and are kept apart here.

How the values were obtained:
Format in all cases: cell-based
RSV strain A2 = test: microbe, parasite or virus in culture; conditions: read-out: RSV HEp-2 EC50
Experimental: Antiviral activity against RSV is determined using an infectious cytopathic cell protection assay in HEp-2 cells. In this assay, compounds inhibiting viral infection and/or replication produce a cytoprotective effect against the virus-induced cell killing that can be quantified using a cell viability reagent. The techniques used here are novel adaptations of methods described in published literature (Chapman et al., Antimicrob Agents Chemother. 2007, 51(9):3346-53.).
HEp-2 cells are obtained from ATCC (Manassas, VI) and maintained in MEM media supplemented with 10% fetal bovine serum and penicillin/streptomycin. Cells are passaged twice a week and kept at subconfluent stage. Commercial stock of RSV strain A2 (Advanced Biotechnologies, Columbia, MD) is titered before compound testing to determine the appropriate dilution of the virus stock that generates desirable cytopathic effect in HEp-2 cells.
For antiviral tests, HEp-2 cells are grown in large cell culture flasks to near confluency but not fully so. The compounds to be tested are prediluted in DMSO in 384-well compound dilution plates, either in an 8 or 40 sample per plate standardized dose response format. 3-fold serial dilution increments of each test compound are prepared in the plates and test samples are transferred via acoustic transfer apparatus (Echo, Labcyte) at 100 nL per well into cell culture assay 384-well plates. Each compound dilution is transferred in single or quadruplicate samples into dry assay plates, which are stored until assay is ready to go. The positive and negative controls are laid out in opposite on ends of the plate in vertical blocks (1 column).
Subsequently, an infectious mixture is prepared using an appropriate dilution of virus stock previously determined by titration with cells at a density of 50,000/mL and 20 µL/well is added to test plates w/compounds via automation (uFlow, Biotek). Each plate includes negative and positive controls (16 replicates each) to create 0% and 100% virus inhibition standards, respectively. Following the infection with RSV, testing plates are incubated for 4 days in a 37° C. cell culture incubator. After the incubation, a cell viability reagent, Cell TiterGlo (Promega, Madison, WI) is added to the assay plates, which are incubated briefly, and a luminescent readout is measured (Envision, Perkin Elmer) in all the assay plates. The RSV-induced cytopathic effect, percentage inhibition, is determined from the levels of remaining cell viability. […] Various potent anti-RSV tool compounds are used as positive controls for antiviral activity.

HRV16 = HRV16 HeLa EC50 (cytopathic effect in H1-HeLa cells)
Experimental: H1-HeLa cells, cultured in complete DMEM medium containing 10% heat-inactivated FBS and 1% Penicillin/Streptomycin, were seeded in 96 well plates at 3000 cells/well one day prior to compound dosing and infection. The antiviral activity of each compound was measured in triplicate. Compounds were added directly to the cell cultures in serial 3-fold dilutions using the HP300 digital dispenser (Hewlett Packard, Palo Alto, CA) immediately prior to infection. The plates were transferred to BSL-2 containment and the appropriate dilution of virus stock, previously determined by titration and prepared in cell culture media, was added to test plates containing cells and serially diluted compounds. Each plate included 6 wells of infected untreated cells and 6 wells of uninfected cells that served as 0% and 100% virus inhibition control, respectively. Following the infection, test plates were incubated for 96 h in a tissue culture incubator set to 33° C./5% CO2. Following incubation, the H1-HeLa cells were removed from incubation and allowed to equilibrate to 25° C. Cell viability was determined by removing 100 μL of culture medium and adding 100 μL of Cell-Titer Glo viability reagent. The mixtures were incubated on a shaker for 10 minutes at 25° C., and the luminescence signal was quantified on an Envision luminescence plate reader.

RSV A2 = test: RSV NHBE EC50 (RSV A2 antiviral assay in NHBE cells); conditions: read-out: RSV NHBE EC50
Experimental: Normal human bronchial epithelial (NHBE) cells were purchased from Lonza (Walkersville, MD, Cat #CC-2540) and cultured in Bronchial Epithelial Growth Media (BEGM) (Lonza, Walkersville, MD, Cat #CC-3170). The cells were passaged 1-2 times per week to maintain <80% confluency. The NHBE cells were discarded after 6 passages in culture.
To conduct the RSV A2 antiviral assay, NHBE cells were plated in 96-well plates at a density of 7,500 cells per well in BEGM and allowed to attach overnight at 37° C. Following attachment, 100 μL of cell culture media was removed and 3-fold serially diluted compound was added using a Hewlett-Packard D300 Digital Dispenser. The final concentration of DMSO was normalized to 0.05%. Following compound addition, the NHBE cells were infected by the addition of 100 μL of RSV A2 at a titer of 1×10^4.5 tissue culture infectious doses/mL in BEGM and then incubated at 37° C. for 4 days. The NHBE cells were then allowed to equilibrate to 25° C. and cell viability was determined by removing 100 μL of culture medium and adding 100 μL of Cell-Titer Glo viability reagent. The mixtures were incubated for 10 minutes at 25° C., and the luminescence signal was quantified on an Envision luminescence plate reader.

[1] = Table 3, HEp-2 cells, RSV A2, 4 days
[2] = Table 3, H1-HeLa cells, 96 h, read-out: HRV16 HeLa EC50
[3] = Table 3, NHBE cells, RSV A2, 4 days
[4] = human respiratory syncytial virus, HEp-2, 96 h, Table 3, HEp-2 cells, RSV A2, 4 days
[5] = 96 h, Table 3, H1-HeLa cells, 96 h, read-out: HRV16 HeLa EC50
[6] = human respiratory syncytial virus, NHBE, 96 h, Table 3, NHBE cells, RSV A2, 4 days
[7] = human respiratory syncytial virus, HEp-2, Table 5 comparative activity, 2',3'-OH vs -OC(O)iPr
[8] = HeLa, Table 5 comparative activity, 2',3'-OH vs -OC(O)iPr, read-out: HRV16 HeLa EC50
[9] = human respiratory syncytial virus, NHBE, Table 5 comparative activity, 2',3'-OH vs -OC(O)iPr

**Q.** What does the source list for `CC(C)C(=O)OC1C(c2ccc3c(N)ncnn23)OC(C#N)(COP(=O)(NC(C)C(=O)OC2CCN(C)C2)Oc2ccccc2)C1OC(=O)C(C)C` (single isomer, unassigned) [Example 229]?
**A.** EC50 (RSV strain A2; [1]): 16 nM; EC50 (HRV16; [2]): 676 nM; EC50 (RSV A2; [3]): 23 nM

**Q.** Which results are given for `CC(C)C(=O)OC1C(c2ccc3c(N)ncnn23)OC(C#N)(COP(=O)(NC(C)C(=O)OC2CCN(C)C2)Oc2ccccc2)C1OC(=O)C(C)C` (single isomer, unassigned) [Example 230]?
**A.** EC50 (RSV strain A2; [1]): 102 nM; EC50 (HRV16; [2]): 864 nM; EC50 (RSV A2; [3]): 47 nM

**Q.** `CC(C)C(=O)O[C@H]1[C@H](c2ccc3c(N)ncnn23)O[C@](C#N)(COP(=O)(N[C@@H](C)C(=O)O[C@H]2CCOC2)Oc2ccccc2)[C@H]1OC(=O)C(C)C` (single isomer, unassigned) [Example 240] was tested. Which EC50 (RSV strain A2; [4]) did it give?
**A.** 20 nM

**Q.** And the EC50 (HRV16; [5])?
**A.** 125 nM

**Q.** And the EC50 (RSV A2; [6])?
**A.** 24 nM

**Q.** Which EC50 (RSV strain A2; [1]) does the source give for `CC(C)C(=O)O[C@H]1[C@H](c2ccc3c(N)ncnn23)O[C@](C#N)(COP(=O)(N[C@@H](C)C(=O)O[C@H]2CCOC2)Oc2ccccc2)[C@H]1OC(=O)C(C)C` (single isomer, unassigned) [Example 241] here?
**A.** 25 nM

**Q.** What about the EC50 (HRV16; [2]) of the same compound?
**A.** 131 nM

**Q.** And the EC50 (RSV A2; [3])?
**A.** 13 nM

**Q.** Which EC50 (RSV strain A2; [7]) does the source give for `C[C@H](NP(=O)(OC[C@@]1(C#N)O[C@@H](c2ccc3c(N)ncnn23)[C@H](O)[C@@H]1O)Oc1ccccc1)C(=O)O[C@H]1CCN(C)C1` (stereo partly drawn) [Example 15, (S)-1-methylpyrrolidin-3-yl ((((2R,3S,4R,5S)-5-(4-aminopyrrolo[2,1-f][1,2,4]triazin-7-yl)-2-cyano-3,4-dihydroxytetrahydrofuran-2-yl)methoxy)(phenoxy)phosphoryl)-L-alaninate] here?
**A.** 4330 nM

**Q.** And the EC50 (HRV16; [8])?
**A.** 11400 nM

**Q.** What about the EC50 (RSV A2; [9]) of the same compound?
**A.** 3260 nM

**Q.** Which results are given for `C[C@H](NP(=O)(OC[C@@]1(C#N)O[C@@H](c2ccc3c(N)ncnn23)[C@H](O)[C@@H]1O)Oc1ccccc1)C(=O)OC1CCN(C)CC1` (some centres unmarked) [Example 19]?
**A.** EC50 (RSV strain A2; [7]): 4180 nM; EC50 (HRV16; HeLa, read-out: HRV16 HeLa EC50, Table 5 comparative activity, 2',3'-OH vs -OC(O)iPr): ≥ 50000 nM; EC50 (RSV A2; [9]): > 5000 nM

**Q.** `C[C@H](NP(=O)(OC[C@@]1(C#N)O[C@@H](c2ccc3c(N)ncnn23)[C@H](O)[C@@H]1O)Oc1ccccc1)C(=O)OC1COC1` (stereo partly drawn) [Example 44, oxetan-3-yl ((((2R,3S,4R,5S)-5-(4-aminopyrrolo[2,1-f][1,2,4]triazin-7-yl)-2-cyano-3,4-dihydroxytetrahydrofuran-2-yl)methoxy)(phenoxy)phosphoryl)-L-alaninate] was tested. Which EC50 (RSV strain A2; [7]) did it give?
**A.** 997 nM

**Q.** What about the EC50 (HRV16; [8]) of the same compound?
**A.** 4260 nM

**Q.** And the EC50 (RSV A2; [9])?
**A.** 1800 nM

**Q.** `CC(C)C(=O)O[C@H]1[C@H](c2ccc3c(N)ncnn23)O[C@](C#N)(COP(=O)(N[C@@H](C)C(=O)OC2CCN(C)CC2)Oc2ccccc2)[C@H]1OC(=O)C(C)C` (stereo partly drawn) [Example 162, (2R,3S,4S,5S)-5-(4-aminopyrrolo[2,1-f][1,2,4]triazin-7-yl)-2-cyano-2-((((((S)-1-((1-methylpiperidin-4-yl)oxy)-1-oxopropan-2-yl)amino)(phenoxy)phosphoryl)oxy)methyl)tetrahydrofuran-3,4-diyl bis(2-methylpropanoate)] was tested. Which EC50 (RSV strain A2; [4]) did it give?
**A.** 179 nM

**Q.** And the EC50 (RSV strain A2; [7])?
**A.** 179 nM

**Q.** And the EC50 (HRV16; [5])?
**A.** 1620 nM

**Q.** And the EC50 (HRV16; [8])?
**A.** 1620 nM

**Q.** And the EC50 (RSV A2; [6])?
**A.** 28 nM

**Q.** And the EC50 (RSV A2; [9])?
**A.** 28 nM

**Q.** How did the EC50 (RSV strain A2; [4]) turn out when `COC(=O)[C@H](C)NP(=O)(OC[C@@]1(C#N)O[C@@H](c2ccc3c(N)ncnn23)[C@H](OC(=O)C(C)C)[C@@H]1OC(=O)C(C)C)Oc1ccc(C[C@H](N)C(=O)OC(C)C)cc1` (stereo partly drawn) [Example 251, (2R,3S,4S,5S)-2-((((4-((S)-2-amino-3-isopropoxy-3-oxopropyl)phenoxy)(((S)-1-methoxy-1-oxopropan-2-yl)amino)phosphoryl)oxy)methyl)-5-(4-aminopyrrolo[2,1-f][1,2,4]triazin-7-yl)-2-cyanotetrahydrofuran-3,4-diyl bis(2-methylpropanoate)] was run?
**A.** 186 nM

**Q.** What about the EC50 (RSV A2; [6]) of the same compound?
**A.** 37 nM
